Reference: article PMC10766962 (Nature Communications, 2024)
Values joined by “and” are separate entries in the source; they are usually repeats but may differ in a detail not shown here. Identical values can stand only once. “Also recorded” adds a separate entry of the source. Like-named read-outs stand apart in the source and are kept apart here. Positions of bridges follow the written chain, without caps; N, C: chain ends. Non-standard residues stand in square brackets, D forms with d. Residues, ends and D or L forms follow the SMILES beside them. Groups on a side chain read outwards from the residue. *: point of attachment. Acetyl(2-S-cholesteryl) = CC(C)CCC[C@@H](C)[C@H]1CC[C@H]2[C@@H]3CC=C4C[C@@H](SCC(=O)*)CC[C@]4(C)[C@H]3CC[C@]12C; PEG16 = NCCOCCOCCOCCOCCOCCOCCOCCOCCOCCOCCOCCOCCOCCOCCOCCOCCC(=O)O; R8 = C=CCCCCCC[C@@](C)(N)C(=O)O; S5 = C=CCCC[C@](C)(N)C(=O)O

What was measured:
in vivo [1] = conditions: male, Syrian (Golden), hamster, inhaled or intranasal, 2.5 mg/kg, Nasal Tissue
[2] = system: SARS-CoV-2 WA-1 (Wuhan) isolate; set-up: species or system Syrian (Golden) hamsters; conditions: hamster, in vivo
in vivo [3] = conditions: male, C57BL/6, mouse, inhaled or intranasal
[4] = system: SARS-CoV-2 Delta B.1.617.2 live virus
[5] = system: SARS-CoV-2 WA-1 (Wuhan) isolate; set-up: species or system Syrian (Golden) hamsters; conditions: hamster, in vivo; remark: listed apart in the source
[6] = system: SARS-CoV-2 B.1.1.529.1 pseudovirus
[7] = format: physicochemical; conditions: pH 7.4
[8] = format: physicochemical; conditions: pH 7.5
[9] = system: SARS-CoV-2 Beta B.1.351 live virus
[10] = system: SARS-CoV-2 B.1.617.2 pseudovirus
[11] = mouse, in vivo
[12] = molecular target: SARS-CoV-2 5-helix bundle (5-HB) protein (Severe acute respiratory syndrome coronavirus 2, UniProt P0DTC2); assay: biochemical; format: binding
[13] = format: physicochemical
[14] = system: GFP-RSV live virus (RSV A2)
[15] = 1 mg/kg, RQ-01 Nasal Tissue Concentration
[16] = 3 mg/kg, RQ-01 Nasal Tissue Concentration
[17] = 10 mg/kg, RQ-01 Nasal Tissue Concentration

CC[C@H](C)[C@H](NC(=O)CNC(=O)[C@H](CO)NC(=O)[C@@H](NC(=O)[C@H](CC(=O)O)NC(C)=O)[C@@H](C)CC)C(=O)N[C@@H](CC(N)=O)C(=O)N[C@@H](C)C(=O)N[C@@H](CO)C(=O)N[C@H](C(=O)N[C@H](C(=O)N[C@@H](CC(N)=O)C(=O)N[C@H](C(=O)N[C@]1(C)CCCCCCC=CCCC[C@@](C)(C(=O)N[C@@H](CCC(=O)O)C(=O)N[C@H](C(=O)N[C@@H](C)C(=O)N[C@@H](CCCCN)C(=O)N[C@@H](CC(N)=O)C(=O)N[C@@H](CC(C)C)C(=O)N[C@@H](CC(N)=O)C(=O)N[C@@H](CCC(=O)O)C(=O)N[C@@H](CO)C(=O)N[C@@H](CC(C)C)C(=O)N[C@H](C(=O)N[C@@H](CC(=O)O)C(=O)N[C@@H](CC(C)C)C(=O)N[C@@H](CCC(N)=O)C(=O)N[C@@H](CCC(=O)O)C(=O)N[C@@H](CC(C)C)C(=O)NCC(=O)N[C@@H](CCCCNC(=O)CCOCCOCCOCCOCCOCCOCCOCCOCCNC(=O)CO[C@H]2CC[C@@]3(C)C(=CC[C@H]4[C@@H]5CC[C@H]([C@H](C)CCCC(C)C)[C@@]5(C)CC[C@@H]43)C2)C(N)=O)[C@@H](C)CC)C(C)C)NC(=O)[C@H](CC(C)C)NC(=O)[C@H](CCCNC(=N)N)NC(=O)[C@H](CC(=O)O)NC(=O)[C@H]([C@@H](C)CC)NC(=O)[C@H](CCC(=O)O)NC(=O)[C@H](CCCCN)NC1=O)[C@@H](C)CC)C(C)C)C(C)C [RQ-01]
level at time molar at 4 h (in vivo [1]; RQ-01 tissue concentration): 23.2 µM | level at time molar at 4 h (in vivo [1]; pH 6.5, RQ-01 tissue concentration): 28.8 µM | OP swab titers (Day 3) [2]: A subset of hamsters from both RQ-01 treated cohorts exhibited reduced OP swab titers | lung viral titers [2]: suppression of lung viral titers | transmission to sentinel hamsters [2]: did not prevent transmission | weight loss of sentinels [2]: protection from weight loss | level at time molar at 2 h (in vivo [3]; [15]): 16.2 µM | level at time molar at 4 h (in vivo [3]; [15]): 22.5 µM | level at time molar at 7 h (in vivo [3]; 1 mg/kg, RQ-01 Tissue Concentration): 0.064 µM | level at time molar (in vivo [3]; 2 mg/kg, pH 7.2, nasal tissue level, start): 10 µM | level at time molar at 2 h (in vivo [3]; [16]): 27.5 µM | level at time molar at 4 h (in vivo [3]; [16]): 28.1 µM | level at time molar at 7 h (in vivo [3]; [16]): 26.4 µM | level at time molar at 24 h (in vivo [3]; [16]): 18.7 µM | level at time molar at 2 h (in vivo [3]; [17]): 73 µM | level at time molar at 4 h (in vivo [3]; [17]): 44.9 µM | level at time molar at 7 h (in vivo [3]; [17]): 59.6 µM | level at time molar at 24 h (in vivo [3]; [17]): 25.4 µM | fold by which RQ-01 outperformed SARSHRC-PEG4-chol [4]: 5.4 fold | OP swab titer [5]: 10-20 PFUs | lung histopathology (pneumonia global severity score, total lung score) [5]: significant protection from the pulmonary sequelae of SARS-CoV-2 infection | viral shedding by OP swab [5]: significantly reduced | weight loss [5]: significant protective effect from weight loss; also recorded: protection from weight loss was also observed | fold by which RQ-01 outperformed SARSHRC-PEG4-chol [6]: 23 fold | elution by fast protein liquid chromatography [7]: eluted as a monodispersed peak | circular dichroism analysis [8]: exhibited α-helical character | improvement of antiviral activity compared to the unstapled peptide [9]: 24 to 39 fold | fold by which RQ-01 outperformed SARSHRC-PEG4-chol [10]: 4.7 fold | clinical observations [11]: no adverse clinical findings | nasal tissue exposure relative to IC90 value [11]: 100-2000 x IC90 | nasal tissue levels relative to infectivity assay IC90 [11]: over 100 | peak lung tissue concentration relative to nasal tissue ([11]; pH 6.5): approximately 1/10th | plasma exposure relative to nasal tissue ([11]; pH 6.5): approximately 1/1000th | nasal tissue level by 48 h ([11]; pH 7.2): 1 µM | peak lung level ([11]; pH 7.2): 1 µM | EC50 [12]: 0.0019 µM | intact compound, % of initial levels ([13]; 25 μM): fully preserved | Percent Intact Peptide ([13]; 1 h): 108.538% and 105.019% and 100.148% and 101.614% | Percent Intact Peptide ([13]; 12 h): 100.519% and 101.487% and 97.3524% and 61.8294% and 103.036% and 91.5274% and 92.844% and 95.276% | cytotoxicity (A549-ACE2 cells): no cytotoxicity

CC[C@H](C)[C@H](NC(=O)[C@H](CO)NC(=O)[C@H](C)NC(=O)[C@H](CC(=O)O)NC(=O)[C@H](Cc1ccccc1)NC(C)=O)C(=O)N[C@@H](CO)C(=O)N[C@@H](CCC(N)=O)C(=O)N[C@H](C(=O)N[C@@H](CC(N)=O)C(=O)N[C@@H](CCC(=O)O)C(=O)N[C@@H](CCCCN)C(=O)N[C@H](C(=O)N[C@@H](CC(N)=O)C(=O)N[C@@H](CCC(N)=O)C(=O)N[C@@H](CO)C(=O)N[C@@H](CC(C)C)C(=O)N[C@]1(C)CCCCCCC=CCCC[C@@](C)(C(=O)N[C@@H](CC(C)C)C(=O)N[C@@H](CC(C)C)C(=O)N[C@@H](Cc2c[nH]cn2)C(=O)N[C@@H](CC(N)=O)C(=O)N[C@H](C(=O)N[C@@H](CCCCNC(=O)CCOCCOCCOCCOCCOCCOCCOCCOCCOCCOCCOCCOCCOCCOCCOCCOCCNC(=O)CS[C@H]2CC[C@@]3(C)C(=CC[C@H]4[C@@H]5CC[C@H]([C@H](C)CCCC(C)C)[C@@]5(C)CC[C@@H]43)C2)C(N)=O)C(C)C)NC(=O)[C@H](CC(=O)O)NC(=O)[C@H](CO)NC(=O)[C@H](CCCCN)NC(=O)[C@H](CCCNC(=N)N)NC(=O)[C@H]([C@@H](C)CC)NC(=O)[C@H](Cc2ccccc2)NC1=O)[C@@H](C)CC)C(C)C [SLI-RSV] (Ac-FDASISQVNEKINQSL[R8]FIRKSD[S5]LLHNVK([PEG16-Acetyl(2-S-cholesteryl)])-NH2; staple 17-24)
IC50 [14]: 0.058 µM | cytotoxicity (A549 cells): no cytotoxicity
